How the values were obtained:
[1] = molecular target: T1, EGFR del746-750 T790M (Homo sapiens, UniProt P00533, DEL746-750/T790M); experiment: EGFR del746-750 T790M biochemical assay (Caliper mobility shift); conditions: 5 μM ATP, 30 min, room temperature; apparent Ki (Morrison) converted by Cheng-Prusoff, Km of ATP 2.1 μM; read-out: EGFR(T790M/d746-750) Ki
T1 construct: purchased Carna Biosciences 08-528

[2] = molecular target: T2, phosphor-EGFR in H1975(L585R/T790M) mutant EGFR expressing cells (Homo sapiens, UniProt P00533, L858R/T790M); experiment: H1975 pEGFR MSD cellular assay; format: cell-based; conditions: NCI-H1975 cells, serum starved, 1 hour compound incubation, pEGFR Tyr1068 MSD
T2 construct: host or cells: NCI-H1975
T2 sequence (P00533 25-1210 T790M/L858R): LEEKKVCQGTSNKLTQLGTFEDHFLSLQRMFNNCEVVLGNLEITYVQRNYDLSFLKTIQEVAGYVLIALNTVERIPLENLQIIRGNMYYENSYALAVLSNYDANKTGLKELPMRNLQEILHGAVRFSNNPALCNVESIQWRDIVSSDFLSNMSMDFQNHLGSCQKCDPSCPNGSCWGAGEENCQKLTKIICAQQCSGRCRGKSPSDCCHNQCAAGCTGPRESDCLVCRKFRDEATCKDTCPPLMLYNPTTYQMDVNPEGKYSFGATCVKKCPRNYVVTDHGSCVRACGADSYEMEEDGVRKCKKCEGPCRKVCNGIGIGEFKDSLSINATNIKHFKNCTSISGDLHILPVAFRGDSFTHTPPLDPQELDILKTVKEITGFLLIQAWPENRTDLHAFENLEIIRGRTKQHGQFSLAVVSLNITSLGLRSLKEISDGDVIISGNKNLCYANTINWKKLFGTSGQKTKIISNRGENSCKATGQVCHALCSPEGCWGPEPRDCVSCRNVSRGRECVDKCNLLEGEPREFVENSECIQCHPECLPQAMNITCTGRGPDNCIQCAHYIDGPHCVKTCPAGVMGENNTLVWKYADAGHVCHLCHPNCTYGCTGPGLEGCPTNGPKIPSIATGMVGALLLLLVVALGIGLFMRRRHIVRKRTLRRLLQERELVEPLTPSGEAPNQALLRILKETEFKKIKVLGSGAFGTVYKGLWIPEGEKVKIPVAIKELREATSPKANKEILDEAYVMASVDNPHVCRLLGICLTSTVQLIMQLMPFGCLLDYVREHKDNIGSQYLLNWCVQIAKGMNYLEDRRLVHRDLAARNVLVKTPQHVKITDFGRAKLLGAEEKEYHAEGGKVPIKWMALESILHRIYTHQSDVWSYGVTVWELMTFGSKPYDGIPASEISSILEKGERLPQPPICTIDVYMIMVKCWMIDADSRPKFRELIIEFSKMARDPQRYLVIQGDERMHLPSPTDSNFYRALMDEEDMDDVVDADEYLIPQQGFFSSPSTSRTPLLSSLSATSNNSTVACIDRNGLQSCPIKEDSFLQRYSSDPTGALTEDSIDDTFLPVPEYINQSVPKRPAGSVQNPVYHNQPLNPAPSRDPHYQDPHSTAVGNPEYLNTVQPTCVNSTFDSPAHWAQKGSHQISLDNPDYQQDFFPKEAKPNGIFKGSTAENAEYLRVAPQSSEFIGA

T1 sequence (P00533 with tags, fused parts or gaps DEL746-750/T790M limits assumed): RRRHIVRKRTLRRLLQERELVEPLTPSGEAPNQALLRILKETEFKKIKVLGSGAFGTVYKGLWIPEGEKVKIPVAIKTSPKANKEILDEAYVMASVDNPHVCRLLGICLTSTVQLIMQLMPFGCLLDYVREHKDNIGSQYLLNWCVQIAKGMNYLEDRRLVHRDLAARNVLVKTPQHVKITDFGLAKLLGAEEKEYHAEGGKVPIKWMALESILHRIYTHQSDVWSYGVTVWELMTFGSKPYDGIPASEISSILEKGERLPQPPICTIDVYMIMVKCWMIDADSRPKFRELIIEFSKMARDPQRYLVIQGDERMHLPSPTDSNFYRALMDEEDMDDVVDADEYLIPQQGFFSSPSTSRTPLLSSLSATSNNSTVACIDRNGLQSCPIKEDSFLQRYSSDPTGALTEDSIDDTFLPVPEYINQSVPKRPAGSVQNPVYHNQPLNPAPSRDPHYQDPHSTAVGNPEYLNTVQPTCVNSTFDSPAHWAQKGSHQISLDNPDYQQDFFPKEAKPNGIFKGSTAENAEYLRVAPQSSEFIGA

Structure (SMILES) | Ki [1] | EC50 [2]
CCC(C)n1cc(C(=O)NC2CCOCC2)c2cnc(Nc3ccnc(N4CCC(O)C(C)(C)C4)n3)cc21 (mixture of isomers) [Example 383, 1-(sec-butyl)-6-((2-(4-hydroxy-3,3-dimethylpiperidin-1-yl)pyrimidin-4-yl)amino)-N-(tetrahydro-2H-pyran-4-yl)-1H-pyrrolo[3,2-c]pyridine-3-carboxamide] | 2.81 nM | 34.7 nM
CCC(C)n1cc(C(=O)NC2CCOC2)c2cnc(Nc3ccnc(N4CCC(O)C(C)(C)C4)n3)cc21 (mixture of isomers) [Example 373, 1-(sec-butyl)-6-((2-(4-hydroxy-3,3-dimethylpiperidin-1-yl)pyrimidin-4-yl)amino)-N-(tetrahydrofuran-3-yl)-1H-pyrrolo[3,2-c]pyridine-3-carboxamide] | 4.44 nM | 67.3 nM
CC(=O)Nc1cn(C(C)C)c2cc(Nc3ccnc(-c4cnn(S(=O)(=O)C5CC5)c4)n3)ncc12 [Example 327, N-(6-((2-(1-(Cyclopropylsulfonyl)-1H-pyrazol-4-yl)pyrimidin-4-yl)amino)-1-isopropyl-1H-pyrrolo[3,2-c]pyridin-3-yl)acetamide] | 0.53 nM | 105 nM
COC1CCN(c2nccc(Nc3cc4c(cn3)nc(COCCN(C)C)n4C(C)C)n2)CC1 [Example 8, [2-(2-Dimethylaminoethoxymethyl)-1-isopropyl-1H-imidazo[4,5-c]pyridin-6-yl]-[2-(4-methoxypiperidin-1-yl)pyrimidin-4-yl]amine] | 106 nM | 585 nM

Further lines, results first:

Ki [1] | EC50 [2] | Structure (SMILES)
144 nM | 623 nM | COC1CCN(c2nccc(Nc3cc4c(cn3)nc(C(F)F)n4C(C)C)n2)CC1 [Example 110, 2-(difluoromethyl)-1-isopropyl-N-(2-(4-methoxypiperidin-1-yl)pyrimidin-4-yl)-1H-imidazo[4,5-c]pyridin-6-amine]
1.77 nM | 80.6 nM | CCNc1ncc(-c2nccc(Nc3cc4c(cn3)nc(C)n4C(C)C)n2)s1 [Example 295, [2-(2-Ethylaminothiazol-5-yl)pyrimidin-4-yl](1-isopropyl-2-methyl-1H-imidazo[4,5-c]pyridin-6-yl)amine]
